Measurements: article PMC12851007 (Angewandte Chemie (International Ed. in English), 2025)
Where a SMILES comes first, the peptide text is derived from it.

How the values were obtained:
[1] = CF dye efflux assay, POPC vesicles; type: biochemical; conditions: error = SD of fit
Text: (§1) Time-dep endent fluores cence intensit y traces, I (t), were subsequentl y normalized to fractional intensities, If(t), using equation (1). Therein, I 0 is the intensity just before addition of peptide and I ∞ is the constant intensit y after addition of the calibration cockt ail.
(§2) IIf (tt ) = II (tt )−II0II∞ − II0 (1)
(§3) The concentration-dependent fractional intensities just before the addition of the calibration cocktail, If, were then normalized to fractional membrane activities, Y, using equation (2).
(§4) Therein, If,0 is the fractional intensit y just before addition of the calibration cocktail in absence of peptide and I f,∞ is the constant fractional intensity after addition of the calibration cocktail.
(§5) YY = IIf − IIf,0IIf,∞ − IIf,0 (2)
(§6) The fractional membrane activities, Y, were subsequently plotted against the peptide concentration, c, and analysed using the Hill equation (3) to obtain the effective molar concentration, EC50, and the Hill coefficient, n. Y0 and Y ma x are the fractional membrane activities in absen ce o f p eptide and at max imal peptide concent rations. For peptides with too little activity to determine Y ma x ex perimentall y, Y max was fixed at 1.0 during fitting.
(§7) YY = YY0 + YYmax − YY0nn (3)
(§8) Vesicle preparation. 100 µ L of a solution of 25 mg/ml of POPC in chloroform or 200 µ L of a solution of 25 mg/ml of EYPC in chloroform was purged with a stream of nitrogen and dried overnight under high vacuum. The thin lipid film was reh ydrated with 1ml of reh yd ration buffer (= inside buffer, see Table S3 ) b y agitation at room temperature for 30 min and then subjected to 5 freeze- thaw cycles (freezing in liquid nitrogen and thawing at 40 °C).
(§9) Subsequently, the liposome suspension was extruded ≥ 15 times through a polycarbonate membrane (pore size 100 nm). Extravesicular components were then removed by size exclusion chromatography using a 1.5 × 12 cm polyprop ylene column (Bio- Rad, German y) with 1.0 g Sephad ex G-50 (medium) as a stationa r y ph ase and the resp ectiv e outside buffer for […]
(§10) Ta b l e S 3. Combinations of inside and outside buffer for CF -LUVs.
(§11) No. Lipid Inside buffer = rehydration buffer Outside buffer
(§12) (1) EYPC 10 mM Hepes, 50 mM CF, pH 7.5 10 mM Hepes, 97 mM NaCl, pH 7.5
(§13) (2) POPC 10 mM Hepes, 50 mM CF, pH 7.5 10 mM Hepes, 97 mM NaCl, pH 7.5
(§14) (3) POPC 10 mM Hepes, 50 mM CF, pH 7.5 10 mM Hepes, 175 mM glucose, pH 7.5 [a] [a] Glucose b uffers (183 mOsm/L at 25 °C) were used within one week after preparation.
(§15) Vesicle quality control. The size distribution of the liposomes was confirmed by DLS to be unimodal and avera ge ve sicles diameters wer e in the ran ge from 115 to 130 nm. The final lipid content in the liposome s uspension after prep ar ation and sep aration w as det ermined b y NMR. CF vesicles are comparabl y leak y and cont ain minor amounts of ex travesi cular CF after a f ew days. When the fluores cence chan ge after vesicl e lys is b y addition of 20 µ L 1.6% (wt/vol) TX-100 was less than a factor of four, the vesicle suspension was no longer used.
(§16) Assay protocol. An appropriate volume of the liposome stock solutions was diluted to 2 mL with outside buffer in a 10 ×10 mm quartz glass cuvette to afford a phospholipid concentration of 25 µM. The cuvette was placed into a thermostatted fluorimeter sample holder and gentl y stirred at 300 rpm at (25.0± 0.1) °C. Subsequentl y, the time-dependent change in fluorescence intensity (C F: λ exc = 492 nm, λ em = 517 nm) was recorded during addition of 20 µL peptide stock solution of var ying concentrations at 60 s and 20µ L of a calibration cocktail (1. 6% […]
intensities, If(t), using equation (1) and the concentration- dependent fractional intensities just before the addition of th e calibration co cktail, I f, w ere then normaliz ed to fr actional membran e activities, Y, using equation (2). The fractional membrane activities, Y, were subsequently plotted against the peptide concentration, c, and anal ysed using the Hill equation (3) to obtain […]

[2] = CF dye efflux assay, EYPC vesicles; type: biochemical; conditions: 97 mM NaCl, pH 7.5, 25 °C, n = 1; for Y30µM, membrane activity, CF assay: 30 µM peptide, 25 µM EYPC⸧CF-LUVs (inside 50 mM CF) in 10 mM Hepes, fluorescence λexc 492/λem 517 nm, peptide at 60 s, TX-100 at 600 s, fractional activity
Text: as §1, §2, §3, §4, §5, §6, §7, §8, §9, §10, §11, §12, §13, §14, §15
as §16, with “The cuvette was placed into a thermostatted fluorimeter sample holder and gentl y stirred at 300 rpm at (25.0± 0.1) °C.” left out

[3] = single-channel, 25 µM POPC⸧CF-LUVs, inside 10 mM Hepes, 50 mM CF, pH 7.5, outside 10 mM Hepes, 175 mM glucose, pH 7.5, n = 1, read-out: EC50, CF assay in glucose-containing buffer
[4] = 25 µM lipid, EYPC⊃CF-LUVs, 10 mM Hepes, fractional activity at 590 s, Hill fit, error = SD of fit

SMILES	EC50 [1, 3] [µM]	Y30µM, membrane activity, CF assay [2]	EC50 ([1]; 25 µM lipid, POPC⊃CF-LUVs, 10 mM Hepes, 97 mM NaCl, pH 7.5, 25 °C, fractional activity at 590 s, Hill fit, n = 1 (Table S5), read-out: EC50, CF assay, POPC) [µM]	EC50 [2, 4] [µM]	EC50, CF assay, isosmotic ([1]; 25 µM POPC⸧CF-LUVs diluted into 10 mM Hepes, 97 mM NaCl, pH 7.5, 25 °C, fractional activity at 590 s, n = 1 (Table S6, Figures S17, S19))	EC50, CF assay, POPC ([1]; 25 µM lipid, POPC⊃CF-LUVs, 10 mM Hepes, 97 mM NaCl, pH 7.5, 25 °C, fractional activity at 590 s, Hill fit, n = 1 (Table S5))	EC50, CF assay, EYPC [2, 4]
CC(C)C[C@H](NC(=O)[C@H](CC(C)C)NC(=O)[C@H](CCCNC(=N)N)NC(=O)[C@@H](N)CC(C)C)C(=O)N[C@@H](CCCNC(=N)N)C(=O)N[C@@H](Cc1c[nH]c2ccccc12)C(N)=O [LRLLRW] (H-LRLLRW-NH2)	101 ± 9	0.23	–	–	–	–	–
CC(C)[C@H](NC(=O)[C@H](CCCCN)NC(=O)[C@H](CCCNC(=N)N)NC(=O)[C@H](CCCCN)NC(=O)[C@H](CCCCN)NC(=O)[C@H](CCCCN)NC(=O)[C@@H]1CCCN1C(=O)[C@H](CCC(N)=O)NC(=O)[C@H](CO)NC(=O)[C@H](Cc1c[nH]c2ccccc12)NC(=O)[C@H](CC(=O)O)NC(=O)[C@@H](NC(=O)[C@H](Cc1c[nH]c2ccccc12)NC(=O)[C@H](Cc1c[nH]c2ccccc12)NC(=O)[C@@H](NC(=O)[C@H](CC(=O)O)NC(=O)[C@H](Cc1c[nH]c2ccccc12)NC(=O)[C@H](Cc1c[nH]c2ccccc12)NC(=O)[C@@H](NC(=O)[C@H](CC(=O)O)NC(=O)[C@@H](N)CCCCN)[C@@H](C)O)[C@@H](C)O)[C@@H](C)O)C(=O)O [Pep‐1] (H-KDTWWDTWWTDWSQPKKKRKV-OH)	540 ± 90	0.46	114 ± 5	35 ± 1	–	–	–
CC[C@H](C)[C@H](NC(=O)[C@H](CCCCN)NC(=O)[C@H](CCCCN)NC(=O)[C@H](C)NC(=O)[C@H](CC(C)C)NC(=O)[C@H](C)NC(=O)[C@H](C)NC(=O)[C@H](CC(C)C)NC(=O)[C@H](C)NC(=O)[C@H](CCCCN)NC(=O)[C@H](CC(C)C)NC(=O)[C@H](CC(N)=O)NC(=O)[C@@H](NC(=O)[C@H](CCCCN)NC(=O)CNC(=O)[C@H](CC(C)C)NC(=O)[C@H](CC(C)C)NC(=O)[C@H](Cc1ccc(O)cc1)NC(=O)CNC(=O)[C@H](C)N)[C@@H](C)CC)C(=O)N[C@@H](CC(C)C)C(=O)O [TP10]	0.12 ± 0.02	–	–	–	–	–	–
CC[C@H](C)[C@H](NC(=O)[C@H](CCCCN)NC(=O)[C@@H](NC(=O)[C@@H](N)CCC(N)=O)[C@@H](C)CC)C(=O)N[C@@H](Cc1c[nH]c2ccccc12)C(=O)N[C@@H](Cc1ccccc1)C(=O)N[C@@H](CCC(N)=O)C(=O)N[C@@H](CC(N)=O)C(=O)N[C@@H](CCCNC(=N)N)C(=O)N[C@@H](CCCNC(=N)N)C(=O)N[C@@H](CCSC)C(=O)N[C@@H](CCCCN)C(=O)N[C@@H](Cc1c[nH]c2ccccc12)C(=O)N[C@@H](CCCCN)C(=O)N[C@@H](CCCCN)C(=O)O (H-QIKIWFQNRRMKWKK-OH)	–	0.14	–	–	too low to determine	too low to determine	too low to determine
